Values of other authors as cited in patent US20040216174A1, “Screening assays for targets and drugs useful in treatment and prevention of lipid metabolism disorders” (priority 2003, published 2004).

Tested on: C. elegans
Conditions: treatment with antioxidant

Substance: vitamin E
- effect on germline development: slows down germline development
